Measurements as given in patent publication US8796302B2 (priority 2004, dated 2014).

Tests used:
[1] = tested on: PGE2; assay: PGE2 release (EIA) after LPS; assay type: cell-based, rat
[2] = tested on: CD-1 mouse Kupffer cells; assay: Superoxide and intracellular ROS in LPS-stimulated Kupffer cells; assay type: cell-based; details: LPS 10 ng/ml
Method: Kupffer cell samples were collected by anesthetizing the CD-1 mice with pentobarbital anesthesia [60 mg/kg intraperitoneally (i.p.)]. The abdomen of the animals was shaved and opened, the portal vein was cannulated and perfused with Ca^2+- and Mg^2+-free Hanks' balanced salt solution (HBSS) at 37° C. for 5 min at a flow rate of 13 ml/min. Subsequently, the liver was perfused with HBSS containing 0.05% collagenase IV (Sigma Chemical, St. Louis, Mo.) at 37° C. for 5 min. After the liver was digested, it was excised and cut into small pieces in collagenase buffer. The suspension was filtered through nylon gauze mesh, and the filtrate was centrifuged at 450×g for 10 min at 4° C. Cell pellets were resuspended in buffer, parenchymal cells were removed by centrifugation at 50×g for 3 min, and the nonparenchymal cell fraction was washed twice with buffer. Cells were centrifuged on a density cushion of 50% of Percoll (Pharmacia, Upsala, Sweden) at 1,000×g for 15 min, and the Kupffer cell fraction was collected and washed again with buffer. The viability of the cells was determined by tryptan blue exclusion at >90%. The cells were seeded onto 24-well culture plates and cultured in RPMI 1640 (GIBCO Laboratories Life Technologies, Grand Island, N.Y.) supplemented with 10% fetal bovine serum and antibiotics (100 U/ml penicillin G and 100 μg/ml streptomycin sulfate) at 37° C. with 5% CO2. Non-adherent cells were removed after 2 hours by replacing media, and cells were cultured for 24 hours before the experiments.
The production of superoxide and intracellular ROS by the Kupffer cells were measured as in Example 5.

Compound: COc1ccc2c(c1)[C@@]13CCCC[C@H]1[C@@H](C2)N(C)CC3 [DM, d-3-methoxy-N-methylmorphinan]
- LPS-induced increase in the release of PGE2 ([1]; DM 10^−5 M and 10^−14 M pretreatment): significantly decreased
- LPS-induced increase in the release of PGE2 ([1]; DM 10^−10 M pretreatment): no significant reduction
- PGE2 production, post treatment ([1]; femtomolar DM after removal of LPS (20 ng/ml, 12 h), 24 h): reduction of NO and PGE2 production
- extracellular superoxide production ([2]; DM 5 μM): attenuated
- intracellular superoxide production (iROS) ([2]; DM 5 μM): attenuated
- extracellular superoxide production ([2]; DM 10 μM): significantly blunted
- intracellular superoxide production (iROS) ([2]; DM 10 μM): significantly blunted
